We go through 17 compounds from US10485795B2, “FXR (NR1H4) binding and activity modulating compounds” (Gilead Sciences, Inc., priority 2011, dated 2019).

For assay [1], the target named is T1, human FXR alpha ligand binding domain (Homo sapiens, UniProt Q96RI1).
T1 construct: made in house; host or cells: E. coli BL21(DE3), vector pDEST15
T1 sequence (Q96RI1 187-472 isoform Q96RI1-2): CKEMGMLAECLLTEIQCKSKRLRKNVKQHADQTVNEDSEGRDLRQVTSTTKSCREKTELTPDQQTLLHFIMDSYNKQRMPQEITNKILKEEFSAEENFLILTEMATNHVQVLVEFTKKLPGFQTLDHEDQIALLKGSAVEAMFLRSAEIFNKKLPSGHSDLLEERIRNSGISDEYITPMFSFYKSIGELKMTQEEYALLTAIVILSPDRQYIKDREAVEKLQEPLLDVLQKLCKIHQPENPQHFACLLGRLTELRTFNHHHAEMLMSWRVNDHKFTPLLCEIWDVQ
Nature of the assay: FRET activity assay (ligand mediated cofactor peptide interaction). The assay is classed as biochemical. The procedure:
Determination of a ligand mediated cofactor peptide interaction to quantify ligand binding to the nuclear receptor FXR was performed as follows: Preparation of human FXR alpha ligand binding domain: The human FXRalpha LBD was expressed in E. coli strain BL21(DE3) as an N-terminally GST tagged fusion protein. The DNA encoding the FXR ligand binding domain was cloned into vector pDEST15 (Invitrogen). Expression was under control of an IPTG inducible T7 promoter. The amino acid boundaries of the ligand binding domain were amino acids 187-472 of Database entry NM_005123 (RefSeq). Expression and purification of the FXR-LBD: An overnight preculture of a transformed E. coli strain was diluted 1:20 in LB-Ampicillin medium and grown at 30° C. to an optical density of OD600=0.4-0.6. Gene expression was then induced by addition of 0.5 mM IPTG. Cells were incubated an additional 6 h at 30° C., 180 rpm. Cells were collected by centrifugation (7000×g, 7 min, rt). Per liter of original cell culture, cells were resuspended in 10 mL lysis buffer (50 mM Glucose, 50 mM Tris pH 7.9, 1 mM EDTA and 4 mg/mL lysozyme) and left on ice for 30 min. Cells were then subjected to sonication and cell debris removed via centrifugation (22000×g, 30 min, 4° C.). Per 10 mL of supernatant 0.5 mL prewashed Glutathione 4B sepharose slurry (Qiagen) was added and the suspension kept slowly rotating for 1 h at 4° C. Glutathione 4B sepharose beads were pelleted by centrifugation (2000×g, 15 sec, 4° C.) and washed twice in wash buffer (25 mM Tris, 50 mM KCl, 4 mM MgCl2 and 1M NaCl). The pellet was resuspended in 3 mL elution buffer per liter of original culture (elution buffer: 20 mM Tris, 60 mM KCl, 5 mM MgCl2 and 80 mM glutathione added immediately prior to use as powder). The suspension was left rotating for 15 min at 4° C., the beads pelleted and eluted again with half the volume of elution buffer than the first time. The eluates were pooled and dialysed overnight in 20 mM Hepes buffer (pH 7.5) containing 60 mM KCl, 5 mM MgCl2 as well as 1 mM dithiothreitol and 10% (v/v) glycerol. The protein was analysed by SDS-Page.
The method measures the ability of putative ligands to modulate the interaction between the purified bacterial expressed FXR ligand binding domain (LBD) and a synthetic biotinylated peptide based on residues 676-700 of SRC-1 (LCD2, 676-700). The sequence of the peptide used was B-[…]-COOH where the N-terminus was biotinylated (B). The ligand binding domain (LBD) of FXR was expressed as fusion protein with GST in BL-21 cells using the vector pDEST15. Cells were lysed by sonication, and the fusion proteins purified over glutathione sepharose (Pharmacia) according to the manufacturers instructions. For screening of compounds for their influence on the FXR-peptide interaction, the Perkin Elmer LANCE technology was applied. This method relies on the binding dependent energy transfer from a donor to an acceptor fluorophor attached to the binding partner of interest. For ease of handling and reduction of background from compound fluorescence LANCE technology makes use of generic fluorophore labels and time resolved detection Assays were done in a final volume of 25 μL in a 384 well plate, in a Tris-based buffer (20 mM Tris-HCl pH 7.5; 60 mM KCl, 5 mM MgCl2; 35 ng/μL BSA), containing 20-60 ng/well recombinantly expressed FXR-LBD fused to GST, 200-600 nM N-terminally biotinylated peptide, representing SRC1 aminoacids 676-700, 200 ng/well Streptavidin-xIAPC conjugate (Prozyme) and 6-10 ng/well Eu W1024-antiGST (Perkin Elmer). DMSO content of the samples was kept at 1%. After generation of the assay mix and diluting the potentially FXR modulating ligands, the assay was equilibrated for 1 h in the dark at rt in FIA-plates black 384 well (Greiner). The LANCE signal was detected by a Perkin Elmer VICTOR2VTM Multilabel Counter. The results were visualized by plotting the ratio between the emitted light at 665 and 615 nm. […]

The target in assay [2] is T2, FXR ligand binding domain (Homo sapiens, UniProt Q96RI1).
T2 construct: expressed in transfected cells; host or cells: HEK293 (DSMZ), transient transfection with a pCMV-BD construct
T2 sequence (Q96RI1 187-472 isoform Q96RI1-2): T1 sequence (Q96RI1 187-472 isoform Q96RI1-2)
Kind of assay: Mammalian One Hybrid (M1H) assay, Gal4 reporter in HEK293 cells. Type of assay: cell-based. The procedure: Determination of a ligand mediated Gal4 promoter driven transactivation to quantify ligand binding mediated activation of FXR was performed as follows: The cDNA part encoding the FXR ligand binding domain was cloned into vector pCMV-BD (Stratagene) as a fusion to the yeast GAL4 DNA binding domain under the control of the CMV promoter. […] The plasmid pFR-Luc (Stratagene) was used as the reporter plasmid, containing a synthetic promoter with five tandem repeats of the yeast GAL4 binding sites, driving the expression of the Photinus pyralis (American firefly) luciferase gene as the reporter gene. In order to improve experimental accuracy the plasmid pRL-CMV (Promega) was cotransfected. pRL-CMV contains the constitutive CMV promoter, controlling the expression of the Renilla reniformis luciferase. All Gal4 reporter gene assays were done in HEK293 cells (obtained from DSMZ, Braunschweig, Germany) grown in MEM with L-Glutamine and Earle's BSS supplemented with 10% fetal bovine serum, 0.1 mM nonessential amino acids, 1 mM sodium pyruvate, and 100 units Penicillin/[…] per mL at 37° C. in 5% CO2. Medium and supplements were obtained from Invitrogen. For the assay, […] were plated per well in 96 well plates in 100 μL per well MEM without Phenol Red and L-Glutamine and with Earle's BSS supplemented with 10% charcoal/dextran treated FBS (HyClone, South Logan, Utah), 0.1 mM nonessential amino acids, 2 mM glutamine, 1 mM sodium pyruvate, and 100 units Penicillin/[…] per mL, incubated at 37° C. in 5% CO2. The following day the cells were >90% confluence. […] MEM with the same composition as used for plating cells was added 2-4 h after addition of transfection mixture. Then compound stocks, prediluted in MEM were added (final vehicle concentration not exceeding 0.1%). […] All experiments were done in triplicates.

Where [3] appears, read: FXR-LBD/SRC-1 peptide interaction, LANCE, read-out: EC50 (Group), FRET activity assay.
Setting [4] is: Gal4-FXR LBD transactivation, HEK293 cells, read-out: EC50 potency range (Group), M1H assay.

Read-outs that look alike come from different tables or passages of the source.

As a reminder, the EC50 is the concentration at which the effect is half-maximal.

Take `Cc1cc(C2CC(O)(c3ccc(OCc4c(-c5c(Cl)cccc5Cl)noc4C4CC4)cc3Cl)C2)cc(C)c1C(=O)O` (single isomer, unassigned) [13/2]: the EC50 in assay [1] (setting [3]) and in assay [2] (setting [4]) was above 100 nM in each case. In the case of `COc1ccc(C(=O)O)cc1C1CC(O)(c2ccc(OCc3c(-c4c(Cl)cccc4Cl)noc3C3CC3)cc2Cl)C1` (single isomer, unassigned) [13/3], the EC50 in assay [1] (setting [3]) and in assay [2] (setting [4]) was 25 to 100 nM in each case. For the compound `Cc1ccc(C(=O)O)cc1C1CC(O)(c2ccc(OCc3c(-c4c(Cl)cccc4Cl)noc3C3CC3)cc2Cl)C1` (single isomer, unassigned) [13/4], the figures for the EC50 in assay [1] (setting [3]) and in assay [2] (setting [4]) were 25 to 100 nM and below 25 nM, respectively. The corresponding values for `Cc1cc(C(=O)O)cc(C2CC(O)(c3ccc(OCc4c(-c5c(Cl)cccc5Cl)noc4C4CC4)cc3Cl)C2)c1` (single isomer, unassigned) [13/5] are 25 to 100 nM and below 25 nM.

As for `Cc1ccc(C2CC(O)(c3ccc(OCc4c(-c5c(Cl)cccc5Cl)noc4C4CC4)cc3Cl)C2)cc1C(=O)O` (single isomer, unassigned) [13/6], the EC50 in assay [1] (setting [3]) was above 100 nM; in assay [2] (setting [4]), below 25 nM.

For the compound `O=C(O)c1cccc(N2CC(O)(c3ccc(OCc4c(-c5c(Cl)cccc5Cl)noc4C4CC4)cc3Cl)C2)c1` (single isomer, unassigned) [13/7], the EC50 in assay [1] (setting [3]) and in assay [2] (setting [4]) was 25 to 100 nM each time. As to `O=C(O)c1cncc(N2CC(O)(c3ccc(OCc4c(-c5c(Cl)cccc5Cl)noc4C4CC4)cc3Cl)C2)c1` (single isomer, unassigned) [13/8], the 50% effective concentration (EC50) in assay [1] (setting [3]) is below 25 nM; in assay [2] (setting [4]), above 100 nM. Take `O=C(O)c1ccnc(N2CC(O)(c3ccc(OCc4c(-c5c(Cl)cccc5Cl)noc4C4CC4)cc3Cl)C2)c1` (single isomer, unassigned) [13/9]: the EC50 in assay [1] is below 25 nM; in assay [2], above 100 nM. As to `O=C(O)c1ccc(C2CC(O)(c3ccc(OCc4c(-c5c(Cl)cccc5Cl)noc4C4CC4)cc3Cl)C2)cc1` (single isomer, unassigned) [Example 13/1], the EC50 in assay [1] (setting [3]) and in assay [2] (setting [4]) was 25 to 100 nM each time. For `CC(C)n1nc(C(=O)NCCS(=O)(=O)O)cc1C1CC(O)(c2ccc(OCc3c(-c4c(Cl)cccc4Cl)noc3C3CC3)cc2Cl)C1` (stereo not drawn) [14/2], in assay [1] (setting [3]), the EC50 was below 25 nM.

Turning to `COC(=O)c1cccc([C@H]2C[C@](O)(c3ccc(OCc4c(-c5c(Cl)cccc5Cl)noc4C4CC4)cc3Cl)C2)c1` [Example 1, Methyl 3-((1s,3s)-3-(2-chloro-4-((5-cyclopropyl-3-(2,6-dichlorophenyl)isoxazol-4-yl)methoxy)phenyl)-3-hydroxycyclobutyl)benzoate], the EC50 is 25 to 100 nM in assay [1] (setting [3]) and above 100 nM in assay [2] (setting [4]).

For `O=C(O)c1cccc([C@H]2C[C@](O)(c3ccc(OCc4c(-c5c(Cl)cccc5Cl)noc4C4CC4)cc3Cl)C2)c1` [Example 2, 3-((1s,3s)-3-(2-Chloro-4-((5-cyclopropyl-3-(2,6-dichlorophenyl)isoxazol-4-yl)methoxy)phenyl)-3-hydroxycyclobutyl)benzoic Acid], the EC50 in assay [1] (setting [3]) and in assay [2] (setting [4]) was 25 to 100 nM in each case.

In the case of `CS(=O)(=O)NC(=O)c1cccc([C@H]2C[C@](O)(c3ccc(OCc4c(-c5c(Cl)cccc5Cl)noc4C4CC4)cc3Cl)C2)c1` [Example 4, 3-((1s,3s)-3-(2-Chloro-4-((5-cyclopropyl-3-(2,6-dichlorophenyl)isoxazol-4-yl)methoxy)phenyl)-3-hydroxycyclobutyl)-N-(methylsulfonyl)benzamide], the EC50 in assay [1] (setting [3]) is below 25 nM; in assay [2] (setting [4]), above 100 nM. For `NS(=O)(=O)c1cccc(C2CC(O)(c3ccc(OCc4c(-c5c(Cl)cccc5Cl)noc4C4CC4)cc3Cl)C2)c1` (stereo not drawn) [Example 5, 3-(3-(2-Chloro-4-((5-cyclopropyl-3-(2,6-dichlorophenyl)isoxazol-4-yl)methoxy)phenyl)-3-hydroxycyclobutyl)benzenesulfonamide] the same measures were 25 to 100 nM and above 100 nM. For `CS(=O)(=O)c1cccc(C2CC(O)(c3ccc(OCc4c(-c5c(Cl)cccc5Cl)noc4C4CC4)cc3Cl)C2)c1` (stereo not drawn) [Example 6, 1-(2-Chloro-4-((5-cyclopropyl-3-(2,6-dichlorophenyl)isoxazol-4-yl)methoxy)phenyl)-3-(3-(methylsulfonyl)phenyl)cyclobutanol] the same measures were 25 to 100 nM and above 100 nM. For `CC(C)n1nc(C(=O)O)cc1[C@H]1C[C@](O)(c2ccc(OCc3c(-c4c(Cl)cccc4Cl)noc3C3CC3)cc2Cl)C1` [Example 8, 5-((1s,3s)-3-(2-Chloro-4-((5-cyclopropyl-3-(2,6-dichlorophenyl)isoxazol-4-yl)methoxy)phenyl)-3-hydroxycyclobutyl)-1-isopropyl-1H-pyrazole-3-carboxylic Acid] the same measures were below 25 nM and 25 to 100 nM.

Turning to `CC(C)n1nc(C(=O)O)cc1[C@H]1C[C@@](O)(c2ccc(OCc3c(-c4c(Cl)cccc4Cl)noc3C3CC3)cc2Cl)C1` [Example 8A, 5-((1r,3r)-3-(2-Chloro-4-((5-cyclopropyl-3-(2,6-dichlorophenyl)isoxazol-4-yl)methoxy)phenyl)-3-hydroxycyclobutyl)-1-isopropyl-1H-pyrazole-3-carboxylate], the EC50 in assay [1] (setting [3]) and in assay [2] (setting [4]) was 25 to 100 nM each time.
